According to PubChem BioAssay (NCI):
Several values for one entry are separate records, joined by “and”; a condition that tells them apart may be missing. Equal values may be shown once.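 Five concentrations, 48 hours, 96-well plates. GI50: concentration for 50% inhibition of growth. TGI marks complete inhibition of growth.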

How the values were obtained:
Assay in all cases: NCI tumour cell line growth inhibition, 48 h
OVCAR-3 ovarian = system: OVCAR-3 ovarian
OVCAR-8 ovarian = system: OVCAR-8 ovarian
SF-295 CNS = system: SF-295 CNS
RPMI-8226 leukemia = system: RPMI-8226 leukemia
MOLT-4 leukemia = system: MOLT-4 leukemia
TK-10 renal = system: TK-10 renal
LOX IMVI melanoma = system: LOX IMVI melanoma
HCT-116 colon = system: HCT-116 colon
NCI-H226 lung = system: NCI-H226 lung
HCT-15 colon = system: HCT-15 colon

Compound	GI50 (OVCAR-3 ovarian)	TGI (OVCAR-3 ovarian)	GI50 (OVCAR-8 ovarian)	TGI (OVCAR-8 ovarian)	GI50 (SF-295 CNS)	TGI (SF-295 CNS)	GI50 (RPMI-8226 leukemia)	TGI (RPMI-8226 leukemia)	GI50 (MOLT-4 leukemia)	TGI (MOLT-4 leukemia)	GI50 (TK-10 renal)	TGI (TK-10 renal)	GI50 (LOX IMVI melanoma)	TGI (LOX IMVI melanoma)	GI50 (HCT-116 colon)	TGI (HCT-116 colon)	GI50 (NCI-H226 lung)	TGI (NCI-H226 lung)	GI50 (HCT-15 colon)	TGI (HCT-15 colon)
[N-]=[N+]=Nc1ncc(-c2ccc(C(F)(F)F)cc2)c(NC2CCCCCC2)n1	> 10 µM	> 10 µM	> 10 µM	> 10 µM	> 10 µM	> 10 µM	> 10 µM	> 10 µM	> 10 µM	> 10 µM	> 10 µM	> 10 µM	> 10 µM	> 10 µM	> 10 µM	> 10 µM	> 10 µM	> 10 µM	> 10 µM	> 10 µM
CCOC(=O)c1sc(=S)c2c(C(=O)c3ccccc3)c(C(=O)c3ccccc3)sc2c1C(=O)OCC	2.01 µM	5.93 µM	3.44 µM	> 100 µM	2.86 µM	13.5 µM	2.87 µM	9.19 µM	3.58 µM	> 100 µM	3.17 µM	63.5 µM	5.08 µM	> 100 µM	4.16 µM	> 100 µM	6.68 µM	> 100 µM	4.1 µM	> 100 µM
C[C@]12CC[C@H]3[C@@H](CC=C4C[C@@H](O)CC[C@@]43C)[C@@H]1C/C(=C\c1cccc(OCCN3CCOCC3)c1)[C@@H]2O	> 100 µM	> 100 µM	> 100 µM	> 100 µM	89.4 µM	> 100 µM	7.83 µM	> 100 µM	13.3 µM	48.7 µM	> 100 µM	> 100 µM	> 100 µM	> 100 µM	80.6 µM	> 100 µM	> 100 µM	> 100 µM	38.9 µM	> 100 µM
OCCNc1nc(NCCO)nc(Nc2ccc(C3=NN(c4cc(Cl)cc(Cl)c4)C(c4ccc(Cl)cc4)C3)cc2)n1 (stereo not given)	1.75 µM	3.19 µM	2.08 µM	4.75 µM	1.47 µM	2.85 µM	1.91 µM	4.85 µM	1.52 µM	4.02 µM	1.89 µM	3.72 µM	1.65 µM	3.01 µM	1.59 µM	3.05 µM	2.45 µM	5.48 µM	1.48 µM	2.8 µM
Cc1cc2c(C(C)C)c(O)c(O)c3coc(/c1=c1/c(C)cc4c(C(C)C)c(=O)c(=O)c5coc1c45)c32	–	16.6 µM	–	17.1 µM	–	16.2 µM	–	34.5 µM	–	17.4 µM	–	27.8 µM	–	18 µM	–	10.8 µM	–	22.9 µM	–	15.6 µM
CC(C)(C)Cn1c(N)nc2ccc(-c3[nH]c(C(C)(C)C)nc3-c3ccc(F)cc3)nc21	9.47 µM	23.7 µM	10.8 µM	25.8 µM	7.82 µM	22 µM	3.29 µM	28.4 µM	7.7 µM	36.9 µM	4.56 µM	18.9 µM	12.8 µM	27.5 µM	6.75 µM	23 µM	12.2 µM	35.9 µM	4.9 µM	30.4 µM
CCc1ccccc1NC(=O)CCc1nc(=S)[nH][nH]1	–	> 100 µM	–	> 100 µM	–	> 100 µM	–	> 100 µM	–	> 100 µM	–	> 100 µM	–	> 100 µM	–	> 100 µM	–	> 100 µM	–	> 100 µM
C=C1C(=O)O[C@H]2[C@H]1CC/C(COC(=O)NCCc1ccc(OC)cc1)=C\CC[C@@]1(C)O[C@@H]21	2.19 µM	5.25 µM	2.77 µM	7.7 µM	13.5 µM	27.4 µM	2.85 µM	7.59 µM	2.61 µM	6.77 µM	2.73 µM	7.62 µM	1.38 µM	2.89 µM	1.34 µM	2.84 µM	4.11 µM	16.4 µM	1.74 µM	4.01 µM
COc1cc(N2CCC(N(C)C)CC2)ccc1Nc1ncc(Cl)c(Nc2ccccc2P(C)(C)=O)n1	1.73 µM and 0.728 µM	11.3 µM and 7.01 µM	2.77 µM and 0.926 µM	23.4 µM and > 10 µM	1.81 µM and 0.409 µM	15.8 µM and > 5.44 µM	3.85 µM and 2.05 µM	21.7 µM and > 7.1 µM	4.05 µM and 1.16 µM	> 100 µM	0.491 µM and 0.196 µM	3.02 µM and 2.62 µM	0.394 µM and 0.175 µM	1.82 µM and 0.68 µM	1.4 µM and 0.183 µM	> 39.2 µM	0.454 µM and 0.0582 µM	2.76 µM and 4.21 µM	2.8 µM and 1.48 µM	16.9 µM and > 9.67 µM
O=C(Oc1ccccc1)c1cc(O)c(O)c(O)c1	4.34 µM	47.3 µM	9.82 µM	> 100 µM	17.9 µM	83.7 µM	11.4 µM	> 100 µM	2.23 µM	26.2 µM	29.1 µM	> 100 µM	8.97 µM	> 100 µM	11.7 µM	> 100 µM	12.9 µM	> 100 µM	5.98 µM	> 100 µM
N#Cc1nc(-c2cccc(Br)c2)cc(-c2ccc(Nc3nc(N4CCCCC4)nc(N4CCCCC4)n3)cc2)c1N	1.76 µM	3.54 µM	2.66 µM	> 100 µM	2.72 µM	8.81 µM	2.19 µM	24 µM	1.1 µM	> 100 µM	1.8 µM	3.47 µM	1.62 µM	3.01 µM	1.55 µM	3.19 µM	1.85 µM	3.94 µM	1.72 µM	5.53 µM
C/C(=N\NC(N)=S)c1ccc(/C(C)=N/NC(N)=S)cc1	–	> 100 µM	–	> 100 µM	–	> 100 µM	–	> 100 µM	–	> 100 µM	–	> 100 µM	–	> 100 µM	–	> 100 µM	–	> 100 µM	–	> 100 µM
O=[N+]([O-])c1cccc(-c2nc3sccn3c2-c2ccnc(NCCCNS(=O)(=O)c3ccc(F)cc3)n2)c1	2.31 µM	8.49 µM	1.74 µM	22.2 µM	2.62 µM	8.15 µM	0.677 µM	2.94 µM	1.23 µM	5.52 µM	4.34 µM	> 100 µM	2.57 µM	10.4 µM	2.85 µM	> 100 µM	1.95 µM	7.6 µM	2.08 µM	9.79 µM
COC(=O)C1=CN(CC2=CC(=O)C(C)=CC2=O)C=C(C(=O)OC)C1c1cccc(OC)c1OC	8.19 µM	24 µM	16.2 µM	42.8 µM	6.88 µM	> 41.8 µM	3.09 µM	10.9 µM	3.28 µM	9.68 µM	8.35 µM	27.1 µM	20 µM	45.2 µM	18.5 µM	36.7 µM	15.6 µM	40.5 µM	18.4 µM	36.9 µM
COc1ccccc1NC(=O)CC(=O)n1nc(C)c(N=Nc2ccccc2F)c1C	–	> 100 µM	–	> 100 µM	–	> 100 µM	–	> 100 µM	–	> 31.6 µM	–	> 100 µM	–	> 100 µM	–	> 31.6 µM	–	> 100 µM	–	> 100 µM
CCN(CC)CCC(=O)Nc1cccc2c1C(=O)c1c(c(O)c3ccccc3c1O)C2=O	15 µM	52.2 µM	10.5 µM	26.9 µM	12.8 µM	> 100 µM	14.2 µM	43.1 µM	8.27 µM	72.5 µM	20.9 µM	40.9 µM	5.77 µM	23.7 µM	8.8 µM	> 100 µM	17.1 µM	> 100 µM	0.934 µM	> 100 µM
COc1ccc(NC2=C(Sc3nc(C)cc(C)n3)C(=O)N(Cc3ccccc3)C2=O)cc1Cl	> 160 µM	> 160 µM	99.2 µM	> 160 µM	74.9 µM	> 160 µM	8.79 µM	> 160 µM	14.4 µM	> 160 µM	> 160 µM	> 160 µM	> 160 µM	> 160 µM	39 µM	> 160 µM	39.5 µM	> 160 µM	> 160 µM	> 160 µM
CNC(=O)c1cc(Oc2ccc3nc(NC(=O)Nc4ccc(Cl)c(Cl)c4)sc3c2)ccn1	2.31 µM	5.38 µM	2.36 µM	5.27 µM	1.53 µM	3.13 µM	3.66 µM	> 100 µM	> 100 µM	> 100 µM	3.46 µM	9.26 µM	1.82 µM	3.52 µM	1.88 µM	4.35 µM	2.28 µM	4.58 µM	3.71 µM	> 100 µM
COc1ccc2c(c1)[nH]c(=O)c1c3cccnc3cn21	0.0251 µM	0.0588 µM	0.0514 µM	21.2 µM	0.0339 µM	5.9 µM	0.0596 µM	32.4 µM	0.0675 µM	> 100 µM	0.056 µM	18.8 µM	0.0679 µM	14 µM	0.0496 µM	14.3 µM	0.0409 µM	18.6 µM	0.043 µM	29.3 µM
FC(F)(F)c1ccc2c(c1)N(CCCN1CCN(C3CC3)CC1)c1ccccc1S2	7.11 µM	20.3 µM	13 µM	26.8 µM	3.74 µM	18.4 µM	6.18 µM	25.8 µM	6.13 µM	23.7 µM	13.8 µM	27.2 µM	13.7 µM	28.3 µM	9.43 µM	23.2 µM	10.7 µM	23.4 µM	3.81 µM	18.6 µM
COc1ncnc2c(NC3OC(CO)C(O)C3O)ncnc12 (stereo not given)	–	11.1 µM	–	5.29 µM	–	22.6 µM	–	3.08 µM	–	1.94 µM	–	5.97 µM	–	0.619 µM	–	0.604 µM	–	3.82 µM	–	> 100 µM
CCCCCCCCCCCCCCCC(=O)NC1CCc2cc(O)c(O)c(O)c2-c2ccc(SC)c(=O)cc21 (stereo not given)	–	16.8 µM	–	28.8 µM	–	13.7 µM	–	> 100 µM	–	> 71.8 µM	–	30.2 µM	–	24.8 µM	–	17.2 µM	–	27.4 µM	–	15.5 µM
COc1cc2c(cc1OC)-c1c(cnn1C1OC(COC(C)=O)C(OC(C)=O)C(OC(C)=O)C1OC(C)=O)CC2 (stereo not given)	–	> 100 µM	–	> 100 µM	–	> 100 µM	–	> 57.3 µM	–	> 100 µM	–	> 100 µM	–	> 100 µM	–	> 100 µM	–	> 100 µM	–	> 100 µM
O=C(O)C(/C=C/c1ccco1)=N\Nc1nc(-c2ccc(Cl)cc2)cs1	9.51 µM	> 50 µM	6.93 µM	> 50 µM	0.842 µM	4.23 µM	15.8 µM	> 50 µM	8.62 µM	> 50 µM	31.6 µM	> 50 µM	6.62 µM	> 50 µM	11.6 µM	> 50 µM	9.41 µM	25.4 µM	9.27 µM	> 50 µM
Cc1c(C(=O)/C=C/c2ccc(O)cc2)nnn1-c1ccnc2c(C(F)(F)F)cccc12	19.5 µM	> 100 µM	10 µM	> 100 µM	25.8 µM	> 100 µM	2.84 µM	21.1 µM	5.06 µM	30.6 µM	9.28 µM	73.4 µM	6.41 µM	> 100 µM	6.66 µM	> 100 µM	27.3 µM	> 100 µM	15.1 µM	> 100 µM
Nc1cc(N)c2nc(-c3ccccc3)c(Nc3ccc(F)cc3)nc2c1	4.66 µM	17.8 µM	12.4 µM	30.3 µM	14.4 µM	32.4 µM	4.64 µM	34.6 µM	> 100 µM	> 100 µM	17.3 µM	35.6 µM	4.81 µM	18 µM	20.1 µM	> 100 µM	17.9 µM	47.5 µM	12.7 µM	38.1 µM
C/C(=N\NC(N)=S)c1ccc2c(c1)OCO2	–	> 100 µM	–	> 100 µM	–	> 100 µM	–	> 100 µM	–	> 100 µM	–	> 100 µM	–	> 100 µM	–	> 100 µM	–	> 100 µM	–	> 100 µM
